These are literature values, as cited in patent US11419915B2, “Compositions and methods for the treatment of malnutrition” (VitalneXt B.V., priority 2015, dated 2022).

For the data set the following is noted: dose of 80 mg/kg bodyweight ursolic acid from an ethanolic extract of Sambucus chinensis; rat plasma.

Each structure is given as a SMILES string.

For `C[C@H]1[C@H](C)CC[C@]2(C(=O)O)CC[C@]3(C)C(=CC[C@@H]4[C@@]5(C)CC[C@H](O)C(C)(C)[C@@H]5CC[C@]43C)[C@H]12` [ursolic acid, 3-beta-3-hydroxy-urs-12-ene-28-oic-acid], the oral bioavailability is on record as 0.6%.
